Measured values: patent publication US6358885B1, “Substituted phenylheterocyclic herbicides” (Mississippi State University, priority 1992, dated 2002)

How the values were obtained:
barley = assay: Test B preemergence/postemergence greenhouse plant response rating 0 to 10; type: in vivo, Hordeum vulgare; conditions: 0 to 10 scale
Procedure, shortened: (§1)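 Both application timings were run together: seeds got compound preemergence, and established seedlings (two to eighteen cm) got it postemergence. Non-phytotoxic solvent carried the chemical. Ratings are visual, versus controls, at twelve to sixteen days.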

barnyardgrass = assay: as above; type: in vivo, Echinochloa crus-galli; conditions: 0 to 10 scale
Procedure, shortened: as §1

blackgrass = assay: as above; type: in vivo, Alopecurus myosuroides; conditions: 0 to 10 scale
Procedure, shortened: as §1

chickweed = assay: as above; type: in vivo, Stellaria media; conditions: 0 to 10 scale
Procedure, shortened: as §1

corn [1] = assay: as above; type: in vivo, Zea mays; conditions: 0 to 10 scale
Procedure, shortened: as §1

sorghum = assay: as above; type: in vivo, Sorghum bicolor; conditions: 0 to 10 scale
Procedure, shortened: as §1

sugar beet = assay: as above; type: in vivo, Beta vulgaris; conditions: 0 to 10 scale
Procedure, shortened: as §1

velvetleaf = assay: as above; type: in vivo, Abutilon theophrasti; conditions: 0 to 10 scale
Procedure, shortened: as §1

purple nutsedge = assay: as above; type: in vivo, Cyperus rotundus; conditions: 0 to 10 scale
Procedure, shortened: as §1

bedstraw = assay: Test C preemergence/postemergence greenhouse plant response rating 0 to 100; type: in vivo, Galium aparine; conditions: for Plant response rating, Bedstraw: 125 g/ha, 0 to 100 scale
Procedure, shortened: (§2)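 Compounds in non-phytotoxic solvent applied preemergence to sandy loam one day after planting, postemergence at the 1–4 leaf stage, or to ~2.5 cm floodwater over silt loam.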

corn [2] = assay: as above; type: in vivo, Zea mays; conditions: for Plant response rating, Corn: 125 g/ha, 0 to 100 scale
Procedure, shortened: as §2

crabgrass = assay: as above; type: in vivo, Digitaria sanguinalis; conditions: for Plant response rating, Crabgrass: 125 g/ha, 0 to 100 scale
Procedure, shortened: as §2

morningglory = assay: as above; type: in vivo, Ipomoea hederacea; conditions: for Plant response rating, Morningglory: 125 g/ha, 0 to 100 scale
Procedure, shortened: as §2

rape = assay: as above; type: in vivo, Brassica napus; conditions: for Plant response rating, Rape: 125 g/ha, 0 to 100 scale
Procedure, shortened: as §2

ryegrass = assay: as above; type: in vivo, Lolium multiflorum; conditions: for Plant response rating Ryegrass: 125 g/ha, 0 to 100 scale
Procedure, shortened: as §2

wheat = assay: as above; type: in vivo, Triticum aestivum; conditions: for Plant response rating, Wheat: 125 g/ha, 0 to 100 scale
Procedure, shortened: as §2

wild oat = assay: as above; type: in vivo, Avena fatua; conditions: for Plant response rating, Wild oat: 125 g/ha, 0 to 100 scale
Procedure, shortened: as §2

rice = assay: Test C flood test plant response rating 0 to 100; type: in vivo, Oryza sativa
Procedure, shortened: as §2

Fc1cc(Cl)ccc1-c1nn2c(c1Br)CCCC2 [Compound 52]
Plant response rating, Barley (barley; POSTEMERGENCE, Rate 50 g/ha): 5 | Plant response rating, Barley (barley; POSTEMERGENCE, Rate 200 g/ha): 7 | Plant response rating, Barley (barley; PREEMERGENCE, Rate 50 g/ha): 2 | Plant response rating, Barley (barley; Rate 200 g/ha, PREEMERGENCE): 3 | Plant response rating, Barnyardgrass (barnyardgrass; POSTEMERGENCE, Rate 50 g/ha): 9 | Plant response rating, Barnyardgrass (barnyardgrass; POSTEMERGENCE, Rate 200 g/ha): 9 | Plant response rating, Barnyardgrass (barnyardgrass; PREEMERGENCE, Rate 50 g/ha): 5 | Plant response rating, Barnyardgrass (barnyardgrass; Rate 200 g/ha, PREEMERGENCE): 9 | Plant response rating, Blackgrass (blackgrass; POSTEMERGENCE, Rate 50 g/ha): 4 | Plant response rating, Blackgrass (blackgrass; POSTEMERGENCE, Rate 200 g/ha): 5 | Plant response rating, Blackgrass (blackgrass; PREEMERGENCE, Rate 50 g/ha): 4 | Plant response rating, Blackgrass (blackgrass; Rate 200 g/ha, PREEMERGENCE): 6 | Plant response rating, Chickweed (chickweed; POSTEMERGENCE, Rate 50 g/ha): 5 | Plant response rating, Chickweed (chickweed; POSTEMERGENCE, Rate 200 g/ha): 7 | Plant response rating, Chickweed (chickweed; PREEMERGENCE, Rate 50 g/ha): 9 | Plant response rating, Chickweed (chickweed; Rate 200 g/ha, PREEMERGENCE): 9 | Plant response rating, Corn (corn [1]; POSTEMERGENCE, Rate 50 g/ha): 6 | Plant response rating, Corn (corn [1]; POSTEMERGENCE, Rate 200 g/ha): 8 | Plant response rating, Corn (corn [1]; PREEMERGENCE, Rate 50 g/ha): 1 | Plant response rating, Corn (corn [1]; Rate 200 g/ha, PREEMERGENCE): 4 | Plant response rating, Sorghum (sorghum; POSTEMERGENCE, Rate 50 g/ha): 4 | Plant response rating, Sorghum (sorghum; PREEMERGENCE, Rate 50 g/ha): 2 | Plant response rating, Sorghum (sorghum; Rate 200 g/ha, POSTEMERGENCE): 7 | Plant response rating, Sorghum (sorghum; Rate 200 g/ha, PREEMERGENCE): 3 | Plant response rating, Sugar beet (sugar beet; POSTEMERGENCE, Rate 50 g/ha): 10 | Plant response rating, Sugar beet (sugar beet; PREEMERGENCE, Rate 50 g/ha): 9 | Plant response rating, Sugar beet (sugar beet; Rate 200 g/ha, PREEMERGENCE): 10 | Plant response rating, Velvetleaf (velvetleaf; POSTEMERGENCE, Rate 50 g/ha): 9 | Plant response rating, Velvetleaf (velvetleaf; PREEMERGENCE, Rate 50 g/ha): 8 | Plant response rating, Velvetleaf (velvetleaf; Rate 200 g/ha, POSTEMERGENCE): 10 | Plant response rating, Velvetleaf (velvetleaf; Rate 200 g/ha, PREEMERGENCE): 10 | Plant response rating, Nutsedge (purple nutsedge; POSTEMERGENCE, Rate 50 g/ha): 3 | Plant response rating, Nutsedge (purple nutsedge; PREEMERGENCE, Rate 50 g/ha): 0 | Plant response rating, Nutsedge (purple nutsedge; Rate 200 g/ha, POSTEMERGENCE): 5 | Plant response rating, Nutsedge (purple nutsedge; Rate 200 g/ha, PREEMERGENCE): 0 | Plant response rating, Bedstraw (bedstraw; POSTEMERGENCE): 100 | Plant response rating (0 to 100), Bedstraw (bedstraw; POSTEMERGENCE, Rate 2 g/ha): 50 | Plant response rating, Bedstraw (bedstraw; PREEMERGENCE): 80 | Plant response rating (0 to 100), Bedstraw (bedstraw; PREEMERGENCE, Rate 2 g/ha): 0 | Plant response rating (0 to 100), Bedstraw (bedstraw; Rate 8 g/ha, POSTEMERGENCE): 70 | Plant response rating (0 to 100), Bedstraw (bedstraw; Rate 8 g/ha, PREEMERGENCE): 0 | Plant response rating (0 to 100), Bedstraw (bedstraw; Rate 31 g/ha, POSTEMERGENCE): 70 | Plant response rating (0 to 100), Bedstraw (bedstraw; Rate 31 g/ha, PREEMERGENCE): 10 | Plant response rating, Corn (corn [2]; POSTEMERGENCE): 50 | Plant response rating (0 to 100), Corn (corn [2]; POSTEMERGENCE, Rate 2 g/ha): 20 | Plant response rating, Corn (corn [2]; PREEMERGENCE): 0 | Plant response rating (0 to 100), Corn (corn [2]; PREEMERGENCE, Rate 2 g/ha): 0 | Plant response rating (0 to 100), Corn (corn [2]; Rate 8 g/ha, POSTEMERGENCE): 30 | Plant response rating (0 to 100), Corn (corn [2]; Rate 8 g/ha, PREEMERGENCE): 0 | Plant response rating (0 to 100), Corn (corn [2]; Rate 31 g/ha, POSTEMERGENCE): 40 | Plant response rating (0 to 100), Corn (corn [2]; Rate 31 g/ha, PREEMERGENCE): 0 | Plant response rating, Crabgrass (crabgrass; POSTEMERGENCE): 70 | Plant response rating (0 to 100), Crabgrass (crabgrass; POSTEMERGENCE, Rate 2 g/ha): 10 | Plant response rating, Crabgrass (crabgrass; PREEMERGENCE): 80 | Plant response rating (0 to 100), Crabgrass (crabgrass; PREEMERGENCE, Rate 2 g/ha): 0 | Plant response rating (0 to 100), Crabgrass (crabgrass; Rate 8 g/ha, POSTEMERGENCE): 30 | Plant response rating (0 to 100), Crabgrass (crabgrass; Rate 8 g/ha, PREEMERGENCE): 0 | Plant response rating (0 to 100), Crabgrass (crabgrass; Rate 31 g/ha, POSTEMERGENCE): 40 | Plant response rating (0 to 100), Crabgrass (crabgrass; Rate 31 g/ha, PREEMERGENCE): 10 | Plant response rating, Morningglory (morningglory; POSTEMERGENCE): 100 | Plant response rating (0 to 100), Morningglory (morningglory; POSTEMERGENCE, Rate 2 g/ha): 20 | Plant response rating, Morningglory (morningglory; PREEMERGENCE): 0 | Plant response rating (0 to 100), Morningglory (morningglory; PREEMERGENCE, Rate 2 g/ha): 0 | Plant response rating (0 to 100), Morningglory (morningglory; Rate 8 g/ha, POSTEMERGENCE): 30 | Plant response rating (0 to 100), Morningglory (morningglory; Rate 8 g/ha, PREEMERGENCE): 0 | Plant response rating (0 to 100), Morningglory (morningglory; Rate 31 g/ha, POSTEMERGENCE): 50 | Plant response rating (0 to 100), Morningglory (morningglory; Rate 31 g/ha, PREEMERGENCE): 0 | Plant response rating, Rape (rape; POSTEMERGENCE): 100 | Plant response rating (0 to 100), Rape (rape; POSTEMERGENCE, Rate 2 g/ha): 10 | Plant response rating, Rape (rape; PREEMERGENCE): 60 | Plant response rating (0 to 100), Rape (rape; PREEMERGENCE, Rate 2 g/ha): 0 | Plant response rating (0 to 100), Rape (rape; Rate 8 g/ha, POSTEMERGENCE): 40 | Plant response rating (0 to 100), Rape (rape; Rate 8 g/ha, PREEMERGENCE): 0 | Plant response rating (0 to 100), Rape (rape; Rate 31 g/ha, POSTEMERGENCE): 70 | Plant response rating (0 to 100), Rape (rape; Rate 31 g/ha, PREEMERGENCE): 10 | Plant response rating Ryegrass (ryegrass; POSTEMERGENCE): 60 | Plant response rating (0 to 100), Ryegrass (ryegrass; POSTEMERGENCE, Rate 2 g/ha): 10 | Plant response rating Ryegrass (ryegrass; PREEMERGENCE): 50 | Plant response rating (0 to 100), Ryegrass (ryegrass; PREEMERGENCE, Rate 2 g/ha): 0 | Plant response rating (0 to 100), Ryegrass (ryegrass; Rate 8 g/ha, POSTEMERGENCE): 20 | Plant response rating (0 to 100), Ryegrass (ryegrass; Rate 8 g/ha, PREEMERGENCE): 0 | Plant response rating (0 to 100), Ryegrass (ryegrass; Rate 31 g/ha, POSTEMERGENCE): 40 | Plant response rating (0 to 100), Ryegrass (ryegrass; Rate 31 g/ha, PREEMERGENCE): 10 | Plant response rating, Wheat (wheat; POSTEMERGENCE): 50 | Plant response rating (0 to 100), Wheat (wheat; POSTEMERGENCE, Rate 2 g/ha): 10 | Plant response rating, Wheat (wheat; PREEMERGENCE): 60 | Plant response rating (0 to 100), Wheat (wheat; PREEMERGENCE, Rate 2 g/ha): 0 | Plant response rating (0 to 100), Wheat (wheat; Rate 8 g/ha, POSTEMERGENCE): 20 | Plant response rating (0 to 100), Wheat (wheat; Rate 8 g/ha, PREEMERGENCE): 0 | Plant response rating (0 to 100), Wheat (wheat; Rate 31 g/ha, POSTEMERGENCE): 30 | Plant response rating (0 to 100), Wheat (wheat; Rate 31 g/ha, PREEMERGENCE): 0 | Plant response rating, Wild oat (wild oat; POSTEMERGENCE): 60 | Plant response rating (0 to 100), Wild oat (wild oat; POSTEMERGENCE, Rate 2 g/ha): 10 | Plant response rating, Wild oat (wild oat; PREEMERGENCE): 20 | Plant response rating (0 to 100), Wild oat (wild oat; PREEMERGENCE, Rate 2 g/ha): 0 | Plant response rating (0 to 100), Wild oat (wild oat; Rate 8 g/ha, POSTEMERGENCE): 20 | Plant response rating (0 to 100), Wild oat (wild oat; Rate 8 g/ha, PREEMERGENCE): 0 | Plant response rating (0 to 100), Wild oat (wild oat; Rate 31 g/ha, POSTEMERGENCE): 30 | Plant response rating (0 to 100), Wild oat (wild oat; Rate 31 g/ha, PREEMERGENCE): 0 | Plant response rating (0 to 100), Rice Japonica (rice; POSTEMERGENCE section, flood test, Rate 2 g/ha): 0 | Plant response rating (0 to 100), Rice Japonica (rice; Rate 8 g/ha, under POSTEMERGENCE head (flood test species)): 20 | Plant response rating (0 to 100), Rice Japonica (rice; Rate 31 g/ha, under POSTEMERGENCE head (flood test species)): 45 | Plant response rating Rice Japonica (rice; flood test species listed under POSTEMERGENCE, 125 g/ha, 0 to 100 scale): 60
